Assays:
Assay type in all cases: functional, cell-based
HCT-15 = experiment: Cytotoxicity against human HCT15 cells assessed as growth inhibition after 72 hrs by SRB assay; conditions: HCT-15, 72 h
KB = experiment: Cytotoxicity against human KB cells assessed as growth inhibition after 72 hrs by SRB assay
HEp-2 = experiment: Cytotoxicity against human Hep2 cells assessed as growth inhibition after 72 hrs by SRB assay; conditions: HEp-2, 72 h
HeLa = experiment: Cytotoxicity against human HeLa cells assessed as growth inhibition after 72 hrs by SRB assay
MCF7 = experiment: Cytotoxicity against human MCF7 cells assessed as growth inhibition after 72 hrs by SRB assay; conditions: MCF7, 72 h
PC-3 = experiment: Cytotoxicity against human PC3 cells assessed as growth inhibition after 72 hrs by SRB assay; conditions: PC-3, 72 h

Row | Structure (SMILES) | IC50 (HCT-15) [µM] | IC50 (KB) [µM] | IC50 (HEp-2) [µM] | IC50 (HeLa) [µM] | IC50 (MCF7) [µM] | IC50 (PC-3) [µM]
1 | C[C@H](OC(=O)/C=C/c1ccc(O)cc1)[C@@H]1CC[C@H]([C@H](O)[C@H]2CC=CC(=O)O2)O1 | > 10 | 3.6 | > 10 | 9.5 | > 10 | > 10
2 | COc1ccc(/C=C\C(=O)O[C@@H](C)[C@@H]2CC[C@H]([C@H](O)[C@H]3CC=CC(=O)O3)O2)cc1 | > 10 | 9.5 | > 10 | 4.2 | > 10 | 10
3 | COc1ccc(/C=C/C(=O)O[C@@H](C)[C@@H]2CC[C@H]([C@H](O)[C@H]3CC=CC(=O)O3)O2)cc1 | > 10 | 1.7 | 5.7 | 6 | > 10 | 7.5
4 | C[C@H](OC(=O)/C=C/c1ccc(O)c(O)c1)[C@@H]1CC[C@H]([C@H](O)[C@H]2CC=CC(=O)O2)O1 | > 10 | 4.9 | 9.4 | 6.9 | > 10 | > 10
5 | C[C@H](OC(=O)/C=C\c1ccc(O)cc1)[C@@H]1CC[C@H]([C@H](O)[C@H]2CC=CC(=O)O2)O1 | > 10 | 7.5 | 7.7 | 3.3 | 9.3 | 8.8
6 | CC[C@]1(O)C[C@@H]2CN(CCc3c([nH]c4ccccc34)[C@@](C(=O)OC)(c3cc4c(cc3OC)N(C)[C@H]3[C@@](O)(C(=O)OC)[C@H](OC(C)=O)[C@]5(CC)C=CCN6CC[C@]43[C@@H]65)C2)C1 [VINBLASTINE] | 0.002 | 0.006 | 0.007 | 0.001 | 0.004 | 0.001

From ChEMBL document CHEMBL4004816, “Complementarity of DFT Calculations, NMR Anisotropy, and ECD for the Configurational Analysis of Brevipolides K-O from Hyptis brevipes” (J Nat Prod, 2017)
